This note sets out measurements from patent publication EP4389751A1, “HETEROCYCLIC COMPOUNDS AND USES THEREOF” (Kumquat Biosciences Inc., priority 2021, dated 2024).

As usually defined, the pIC50 is the negative decadic logarithm of the IC50, by convention in mol/L.

pIC50: −log10 of the molar value. Where two headings read alike, the source gives them in different places. Some results are limits rather than exact numbers.

One experiment deals with T1, K-Ras G12S (Homo sapiens, UniProt P01116, G12S).
T1 construct: made in house; host or cells: E. coli (e.g., BL21 (DE3))
The experiment in a line: HTRF assay of the K-Ras / SOS1 interaction. The format is biochemical. Conditions: IC50 (against K-Ras G12D) to IC50 (against K-Ras G12S). A digest of the protocol:
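Compounds (duplicates, 10 µM to 0.01 µM) were incubated ≥~10 min with Eu-labelled GST-K-Ras G12S and XL665-labelled His-hSOS1 in HEPES pH 7.4 buffer containing NaCl, DTT, BSA and Igepal. Disruption measured as HTRF emission ratio 665/620 nm, fitted to IC50.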
Background: In TR-FRET formats the signal depends on donor and acceptor labels being close together.

For a further experiment, the system named is A549 cells. Briefly: Cell proliferation assay (CellTiter-Glo), K-Ras G12S cells. The format is cell-based. The following applies: for pIC50: Homo sapiens. How it is done:
A549 (ATCC CRL-185) and LS123 (ATCC CRL-255) cell lines comprise a G12S mutation and can be used to assess Ras cellular signaling in vitro, e.g., in response to the compounds herein. A549 culture medium is prepared with RPMI-1640 and 10% heat-inactivated FBS. LS123 culture medium is prepared with RPMI-1640 and 10% heat-inactivated FBS. A CellTiter-Glo (CTG) luminescent based assay (Promega) is used to assess growth of the cells, as a measurement of the ability of the compounds herein to inhibit Ras signaling in the cells. The cells (e.g., 800 per well) are seeded in their respective culture medium in standard tissue culture-treated 384-well format plates (Falcon #08-772-116) or ultra-low attachment surface 384-well format plates (S-Bio # MS-9384WZ). The day after plating, cells are treated with a dilution series (e.g., a 10 point 3-fold dilution series) of the compounds herein (e.g., approximately 40 µl final volume per well). Cell viability can be monitored (e.g., approximately 6 days later) according to the manufacturer's recommended instructions, where the CellTiter-Glo reagent is added (e.g., approximately 10 µl), vigorously mixed, covered, and placed on a plate shaker (e.g., approximately for 20 min) to ensure sufficient cell lysis prior to assessment of luminescent signal. The IC50 values are determined using the four parameter fit. The resulting IC50 value is a measurement of the ability of the compounds herein to reduce cell growth of Ras-driven cells (e.g., tumor cell lines) in vitro and/or in vivo.

The next experiment relates to GP2D cells. Briefly: Cell proliferation assay (CellTiter-Glo), K-Ras G12D cells. The format is cell-based. Conditions: read-out: Inhibition of GP2D Cells (IC50). An outline of the steps:
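CellTiter-Glo luminescence, taken roughly 5 days after dosing, measured growth of G12D-mutant GP2D cells in DMEM/2 mM glutamine/10% FBS. Compound dilution series (e.g., 9 points, 3-fold) added the day after plating. Four-parameter fitting gave IC50.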
In general terms: In ATP-based viability assays light output follows the ATP content of the culture.

Where [1] appears, read: A549, A549 cells (K-Ras G12S), bin ≤ 500 nM, read-out: Inhibition of A549 Cells (IC50).
[2] abbreviates: A549, A549 cells (K-Ras G12S), bin 500 nM to 5 µM, read-out: Inhibition of A549 Cells (IC50).

T1 sequence (P01116 1-188 isoform P01116-2 G12S): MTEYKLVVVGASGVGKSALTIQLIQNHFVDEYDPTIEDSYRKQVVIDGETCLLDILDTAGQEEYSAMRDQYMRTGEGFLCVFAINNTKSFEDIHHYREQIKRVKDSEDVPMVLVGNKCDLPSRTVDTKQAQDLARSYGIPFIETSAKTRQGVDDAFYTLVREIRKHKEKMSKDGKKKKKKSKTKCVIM

Turning to `N#Cc1c(N)sc2c(F)ccc(-c3c(Cl)cc4c(N5CCCC6C5CCN6C(=O)n5cncn5)nc(OC[C@@]56CCCN5C[C@H](F)C6)nc4c3F)c12` (stereo partly drawn) [Compound A184, 4-(4-(1-(1H-1,2,4-triazole-1-carbonyl)octahydro-4H-pyrrolo[3,2-b]pyridin-4-yl)-6-chloro-8-fluoro-2-(((2R,7aS)-2-fluorotetrahydro-1H-pyrrolizin-7a(5H)-yl)methoxy)quinazolin-7-yl)-2-amino-7-fluorobenzo[b]thiophene-3-carbonitrile], the “Ratio of IC50 KRAS G12D vs. IC50 KRAS G12S” value on K-Ras G12S was “A (A: indicates that the ratio of IC50 against KrasG12D vs. IC50 against KrasG12S is 1-fold or greater)”. Moreover, the pIC50 in the experiment on A549 cells (setting [1]) was at least 6.30; in the experiment with GP2D cells (GP2D cells (K-Ras G12D)), at least 6.00. Also, in the experiment with A549 cells (K-Ras G12D cell line such as GP2D relative to K-Ras G12S cell line such as A549, greater than 1, 2, 3, 4, 5, 10, 15 or even greater, 8640 min), the “ratio of IC50 against a G12D cell line to IC50 against a G12S cell line” value is “greater than 1”.

As for `Cc1nc(C)n(C(=O)N2CC3(CCCN(c4nc(OC[C@@]56CCCN5C[C@H](F)C6)nc5c(F)c(-c6ccc(F)c7sc(N)c(C#N)c67)c(Cl)cc45)C3)C2)n1` [Compound A190, 2-amino-4-(6-chloro-4-(2-(3,5-dimethyl-1H-1,2,4-triazole-1-carbonyl)-2,6-diazaspiro[3.5]nonan-6-yl)-8-fluoro-2-(((2R,7aS)-2-fluorotetrahydro-1H-pyrrolizin-7a(5H)-yl)methoxy)quinazolin-7-yl)-7-fluorobenzo[b]thiophene-3-carbonitrile], on K-Ras G12S, the “Ratio of IC50 KRAS G12D vs. IC50 KRAS G12S” value was “A (A: indicates that the ratio of IC50 against KrasG12D vs. IC50 against KrasG12S is 1-fold or greater)”. Moreover, the pIC50 with A549 cells (setting [2]) was 5.30 to 6.30; with GP2D cells (GP2D cells (K-Ras G12D)), 5.00 to 6.00.

For the molecule `Cc1ncn(C(=O)N2C3CCC2CN(c2nc(OC[C@@]45CCCN4C[C@H](F)C5)nc4c(F)c(-c5ccc(F)c6sc(N)c(C#N)c56)c(Cl)cc24)C3)n1` [Compound A186, 2-amino-4-(6-chloro-8-fluoro-2-(((2R,7aS)-2-fluorotetrahydro-1H-pyrrolizin-7a(5H)-yl)methoxy)-4-(8-(3-methyl-1H-1,2,4-triazole-1-carbonyl)-3,8-diazabicyclo[3.2.1]octan-3-yl)quinazolin-7-yl)-7-fluorobenzo[b]thiophene-3-carbonitrile], the “Ratio of IC50 KRAS G12D vs. IC50 KRAS G12S” value on K-Ras G12S was “A (A: indicates that the ratio of IC50 against KrasG12D vs. IC50 against KrasG12S is 1-fold or greater)”. Moreover, the negative-log IC50 (pIC50) is 5.30 to 6.30 with A549 cells (A549, read-out: Inhibition of A549 Cells (IC50)) and at least 6.00 in the experiment on GP2D cells (GP2d).

As to `N#Cc1ccn(C(=O)N2C3CCC2CN(c2nc(OC[C@@]45CCCN4C[C@H](F)C5)nc4c(F)c(-c5ccc(F)c6sc(N)nc56)c(Cl)cc24)C3)n1` [Compound A245, 1-(3-(7-(2-amino-7-fluorobenzo[d]thiazol-4-yl)-6-chloro-8-fluoro-2-(((2R,7aS)-2-fluorotetrahydro-1H-pyrrolizin-7a(5H)-yl)methoxy)quinazolin-4-yl)-3,8-diazabicyclo[3.2. 1]octane-8-carbonyl)-1H-pyrazole-3-carbonitrile], the “Ratio of IC50 KRAS G12D vs. IC50 KRAS G12S” value on K-Ras G12S is “A (A: indicates that the ratio of IC50 against KrasG12D vs. IC50 against KrasG12S is 1-fold or greater)”. Also, the values for the pIC50 in the experiment with A549 cells (setting [2]) and in the experiment on GP2D cells (GP2D cells (K-Ras G12D)) were 5.30 to 6.30 and at least 6.00, respectively.

For `N#Cc1c(N)sc2c(F)ccc(-c3c(Cl)cc4c(N5CCC6C5CCN6C(=O)n5cncn5)nc(OC[C@@]56CCCN5C[C@H](F)C6)nc4c3F)c12` (stereo partly drawn) [Compound A108, 4-(4-(4-(1H-1,2,4-triazole-1-carbonyl)hexahydropyrrolo[3,2-b]pyrrol-1(2H)-yl)-6-chloro-8-fluoro-2-(((2R,7aS)-2-fluorotetrahydro-1H-pyrrolizin-7a(5H)-yl)methoxy)quinazolin-7-yl)-2-amino-7-fluorobenzo[b]thiophene-3-carbonitrile], the “Ratio of IC50 KRAS G12D vs. IC50 KRAS G12S” value at K-Ras G12S is listed as “A (A: indicates that the ratio of IC50 against KrasG12D vs. IC50 against KrasG12S is 1-fold or greater)”. Moreover, the pIC50 in the experiment on A549 cells (setting [1]) is at least 6.30; in the experiment with GP2D cells (GP2D cells (K-Ras G12D)), at least 6.00.
